# From patent publication US7601838B2, “2-Alkyl/aryl sulphonyl-1,2,3,4-tetrahydro-9H-pyrido (3,4-b) indole-3-carboxylic acid esters/amides useful as antithrombotic agents” (Council of Scientific and Industrial Research, priority 2004, dated 2009)
# Test system: stasis induced thrombosis in LPS treated rabbits
# Test: Rabbit venous thrombosis model (stasis induced thrombosis in LPS treated rabbits)
# Assay type: in vivo, New Zealand white strain rabbits
# Details: evaluated at 10 μM/Kg and 30 μM/kg dose
# Procedure: [formula] 1.4 Evaluation of coagulation parameters: Blood was collected by cardiac puncture from ether-anaesthetized rat using a syringe containing 3.2% tri-sodium citrate (9:1, v/v). Plasma was obtained by centrifugation of citrated blood at 2500×g for 15 min at 20° C. Stock solutions of the test compounds were prepared freshly in DMSO and were diluted in DMSO. Thrombin time (TT), prothrombin time (PT) and activated partial thromboplastin time (aPTT) were evaluated according to manufacturer's instructions supplied with kits (Stago, France) and measured by Coagulometer (Stago, France)^(4). In each set of experiment effect of DMSO on these parameters was also assessed and was used to calculate change in TT, PT or aPTT. 1.5 Rabbit venous thrombosis model: Experiments were performed on New Zealand white strain rabbits (2-3 kg) either sex. Escherichia coli LPS strain 1055:B5 (Sigma Chemicals, USA) was injected intravenously via ear vein (1 μg/kg)^(5,6). Jugular veins on both sides were exposed and dissected free from surrounding tissue. Two loose surer were placed 1.5 cm apart and all collateral veins were ligated. Four hours after E. coli endotoxin injection (animal is watched for any signs of hypersensitivity reaction during this period), stasis was established and maintained for 45 min by tightening the two sutures. Ligated segments were removed and opened longitudinally and the thrombus was carefully removed and weighed. Heparin sodium (Beparine from beef intestinal mucosa ≧140 USP units/mg; Biological E. Limited, India) was given in doses of (0.5, 0.25, 0.1 mg/kg i.v., via ear vein) 5 min before stasis. 1.6 Effect of compound (i) on human platelet aggregation in vitro: Platelet aggregation study was done on human platelets following isolation of PRP from the human blood as described above (1.3). Aggregation was induced by collagen (10 μg/ml, 5 μg/ml), ADP (10 μM) and thrombin (0.5 U/ml). 2. Results: Effect of test compounds is indicated in the following table (1) against collagen and epinephrine induced thrombosis in mice, which is a primary screening model to detect antithrombotic efficacy of the test agents. At the same dose these compounds were also evaluated for their effect on the bleeding time in mouse (Table 1).
# Effect on venous thrombosis model in rabbit: The selected compounds were evaluated at 10 μM/Kg and 30 μM/kg dose for their efficacy against stasis induced thrombosis in LPS treated rabbits. […] Ex vivo effect of selective compounds on rat platelet aggregation: Blood was collected in sodium citrate to obtain PRP and evaluate the ex vivo effect of selective compounds ((i), (ii), (iii) at 30 μM/kg administered by the ip route) against ADP, collagen, phorbol myristate ester (PMA) calcium ionophore (A23187), or thrombin induced aggregation. It was observed that all these compounds were consistent against collagen-induced platelet aggregation (Table 3). (iii) inhibited ADP (10 μM), collagen (10 μg/ml), PMA (1.5 μM), and thrombin (0.64 U/ml) induced platelet aggregation while no inhibition was found against calcium ionophore A23187 (2.5 μg/ml) induced platelet aggregation. […] Effect on clotting parameters: The selected compounds were also tested in vitro for their effect on thrombin time (TT), prothrombin time (PT) and activated partial thromboplastin time (aPTT) at 100 μg/ml and 200 μg/ml in vitro (Table 4). The test compounds at 100 μg/ml had no significant effect of on these parameters. Some effect was though seen on PT at 200 μg/ml concentration, but the concentration seems to be quite high.
# Values are Mean±; Compound (i); n=2, Compound (ii); n=4, Compound (iii), n=4 [n is no. of observations in 2 or more animals at 10 μM/Kg or 30 μM/Kg p.o. administered 2 h prior to the stasis] or vehicle control [n=10 observations in five animals]. In heparin treated group n=6 observations for each dose in nine animals.
row,Structure (SMILES),inhibition of thrombus formation (in words)
1,"COC(=O)C1Cc2c([nH]c3ccccc23)CN1S(=O)(=O)c1ccc(C)cc1 (racemic) [n, 2[4-methylbenzenesulfonyl]-1,2,3,4,-tetrahydro-9H-pyrido[3,4-b]indole-3-carboxylic acid ester]",inhibited thrombus formations only at 30 μM/Kg

# Test system: collagen and epinephrine induced thrombosis in mice
# Test: Effect on mouse thrombosis: collagen and adrenaline induced pulmonary thromboembolism
# Assay type: in vivo
# Details: 30 μM/kg orally 60 min prior to collagen + adrenaline challenge
# Procedure: Pulmonary thromboembolism was induced by following a method of Diminno and Silver^(1). Test compounds (30 μM/Kg) or vehicle were administered orally 60 min prior to the thrombotic challenge. A mixture of collagen (150 μg/ml) and adrenaline (50 μg/mL) was administered by the rapid intravenous injection into the tail vein to induce hind limb paralysis or death. A group of 10 animals were used to evaluate the effect of test compound, while 5 mice were used to assess effect of a standard drug, aspirin and a group of vehicle treated (n=5) mice was also used each experiment.
# % Protection was expressed as: […]
# Ptest is the number of animals paralyzed/dead in the test compound-treated group, and Pcontrol is the number of animals paralyzed/dead in vehicle treated group.
row,Structure (SMILES),Antithrombotic activity (AT) (% protection) [%]
1,Cc1cc(C)c(S(=O)(=O)N2Cc3[nH]c4ccccc4c3CC2C(N)=O)c(C)c1 (stereo not drawn) [v],30
2,"COC(=O)C1Cc2c([nH]c3ccccc23)CN1S(=O)(=O)c1c(C(C)C)cc(C(C)C)cc1C(C)C (racemic) [h, 2[2,4,6 triisopropylbenzenesulfonyl]-1,2,3,4,-tetrahydro-9H-pyrido[3,4-b]indole-3-carboxylic acid ester]",0
3,"COC(=O)C1Cc2c([nH]c3ccccc23)CN1S(=O)(=O)c1cccc2c(N(C)C)cccc12 (racemic) [g, 2-[dansylsulfonyl]-1,2,3,4,-tetrahydro-9H-pyrido[3,4-b]indole-3-carboxylic acid ester]",20
4,NC(=O)C1Cc2c([nH]c3ccccc23)CN1S(=O)(=O)c1cccc([N+](=O)[O-])c1 (stereo not drawn) [u],45
5,"NC(=O)C1Cc2c([nH]c3ccccc23)CN1S(=O)(=O)c1ccc(F)cc1 (stereo not drawn) [s, 2[-4-fluorobenzenesulfonyl]-1,2,3,4,-tetrahydro-9H-pyrido[3,4-b]indole-3-carboxylic acid amide]",60
6,"COC(=O)C1Cc2c([nH]c3ccccc23)CN1S(=O)(=O)c1ccccc1[N+](=O)[O-] (racemic) [c, 2[2, nitrobenzenesulfonyl]-1,2,3,4,-tetrahydro-9H-pyrido[3,4-b]indole-3-carboxylic acid ester]",0
7,"COC(=O)C1Cc2c([nH]c3ccccc23)CN1S(=O)(=O)c1cccc2ccccc12 (racemic) [d, 2[1-naphthylsulfonyl]-1,2,3,4,-tetrahydro-9H-pyrido[3,4-b]indole-3-carboxylic acid ester]",20
8,COC(=O)C1Cc2c([nH]c3ccccc23)CN1S(=O)(=O)c1ccc(OC)cc1 (racemic) [e],0
9,"NC(=O)C1Cc2c([nH]c3ccccc23)CN1S(=O)(=O)c1cccc2cccnc12 (stereo not drawn) [r, 2[8-quinolinesulfonyl]-1,2,3,4,-tetrahydro-9H-pyrido[3,4-b]indole-3-carboxylic acid amide]",30
10,"COC(=O)C1Cc2c([nH]c3ccccc23)CN1S(=O)(=O)c1cccc2cccnc12 (racemic) [f, 2[8-quinolinesulfonyl]-1,2,3,4,-tetrahydro-9H-pyrido[3,4-b]indole-3-carboxylic acid ester]",20
11,"COC(=O)C1Cc2c([nH]c3ccccc23)CN1S(=O)(=O)c1ccc(F)cc1 (racemic) [i, 2[4-fluorobenzenesulfonyl]-1,2,3,4,-tetrahydro-9H-pyrido[3,4-b]indole-3-carboxylic acid ester]",0
12,"CS(=O)(=O)N1Cc2[nH]c3ccccc3c2CC1C(N)=O (stereo not drawn) [t, 2[methanesulfonyl]-1,2,3,4,-tetrahydro-9H-pyrido[3,4-b]indole-3-carboxylic acid amide]",30
13,"COC(=O)C1Cc2c([nH]c3ccccc23)CN1S(C)(=O)=O (racemic) [k, 2[methylsulfonyl]-1,2,3,4,-tetrahydro-9H-pyrido[3,4-b]indole-3-carboxylic acid ester]",50
14,"COC(=O)C1Cc2c([nH]c3ccccc23)CN1S(=O)(=O)c1c(C)cc(C)cc1C (racemic) [b, 2[2,4,6, trimethylbenzenesulfonyl]-1,2,3,4,-tetrahydro-9H-pyrido[3,4-b]indole-3-carboxylic acid ester]",20
15,"NC(=O)C1Cc2c([nH]c3ccccc23)CN1S(=O)(=O)c1cc(Cl)ccc1Cl (stereo not drawn) [o, 2[-2,5-dichlorobenzenesulfonyl]-1,2,3,4,-tetrahydro-9H-pyrido[3,4-b]indole-3-carboxylic acid amide]",40
16,"NC(=O)C1Cc2c([nH]c3ccccc23)CN1S(=O)(=O)c1cccc2ccccc12 (stereo not drawn) [q, 2[-1-naphthylsulfonyl]-1,2,3,4,-tetrahydro-9H-pyrido[3,4-b]indole-3-carboxylic acid amide]",20

# Same assay, conditions: 10 mg/kg (indomethacin)
row,Structure (SMILES),Antithrombotic activity (AT) (% protection)
1,"COc1ccc2c(c1)c(CC(=O)O)c(C)n2C(=O)c1ccc(Cl)cc1 [Indomethacin, reference compound]",55 ± 15 (n = 20) %
